According to patent EP2181589A1, “Neurotoxic sterol glycosides” (Shaw, Christopher Ariel, priority 2008, dated 2010):
Marks after values point to notes of the source that are not given here.

Assays:
Type in all cases: in vivo, CD-1 mice
Lipid deposits = assay: Oil red O histochemistry (lipid deposits)
Protocol: (§1) The synthetic SG was mixed with finely ground Purina Chow mouse pellets (Mouse Diet™, Purina) to create the experimental pellets with a SG content of 1000 µg per pellet. Dry materials were blended with a sterile silicon spatula. For every 5 g of standard feed, 2.5 mL of doubly-distilled water (dd)H2O was added and the dough was kneaded and round up into pellets. A single sterol glucoside containing pellet was placed in the feeding tray each morning before the addition of regular mouse chow (ad libitum). All experimental pellets were entirely consumed by the mice each day. Control mice were fed standard mouse chow pellets of identical weight with no additives. SG feeding was conducted daily for 15 weeks and mice were behaviorally monitored until sacrifice at 35 weeks (time point 1) or 52 weeks (time point 2).
Tissue-mounted slides were processed to evaluate lipid distribution with light microscopy with a protocol adapted from Dr. Roy Ellis (IMVS Division of Pathology, The Queen Elizabeth Hospital, Woodville, South Australia). First, an oil red O stock solution was prepared 2 hours prior to execution of the histochemical procedures. The oil red O stock stain solution was made by mixing oil red O (0.5 g, Sigma-Aldrich, Oakville, ON, Canada) and isopropanol (100 mL, Fisher Scientific, Nepean, ON, Canada) over a 40°C water bath. Immediately prior to beginning the oil red O histochemical procedures, the oil red O working solution was made by combining 20 mL of distilled water for every 30 mL of oil red O stock stain solution. […] Slide-mounted sections were rinsed in coplin jars for 15 minutes at RT in three changes of PBS. Sections were then rinsed at RT with 60% isopropanol for 5 minutes. The spinal cord sections were then stained with a freshly prepared working solution of oil red O for 20 minutes and then rinsed with 60% isopropanol. Nuclear counterstaining was achieved by staining the sections with haematoxylin (haematoxylin, 7211, Richard Allan Scientific, Kalamazoo, MI, USA) for 1 minute. Finally, the sections were rinsed with distilled water, dried under a fume hood and cover-slipped with Entellen (Merck, Darmstadt, Germany).
The numbers of immunoreactive somata or inclusions were counted across the ventral horn of the spinal cord, across brain hemispheres, or per dorsal or ventral root with the 40x objective lens in a 600 µm / 600 µm area within region perimeters defined by a mouse brain atlas (2001). For each animal, eight cross-sections per spinal cord or brain region were studied. An average of both the right and left ventral horn for each of the eight cross sections was generated giving a final averaged number for each animal in each of the spinal cord areas. For quantification of the level of mitochondrial activity (cytochrome c oxidase labelling) in the lumbar spinal cord or tyrosine hydroxylase immunoreactivity in the substantia nigra pars compacta and striatal sections, images captured using the Motic B5 Professional Series 3.0 microscope (Motic Instruments Inc., Richmond, ON) and analyzed using Motic B5 Professional, Motic Images Advanced 3.0 (Motic Instruments Inc., Richmond, ON) were scanned into a TIFF format file and analysed using the NIH Image J 1.37 software to measure density levels of antibody labelling. Eight to 12 sections from each mouse per region of interest were included.

[1] = test system: Ionized calcium-binding adaptor molecule-1; assay: IBA-1 immunofluorescence (microglia proliferation); details: SG-fed group over time, 35 to 52 wk
Protocol: as §1
(§2) Tissue-mounted slides were processed for fluorescence microscopy as follows: Sections were rinsed in coplin jars for 45 minutes at room temperature (RT) in three changes of PBS. Sections were then incubated at RT for 30 minutes in a blocking permeabilization solution made of 5% normal goat serum (NGS), 5% normal rabbit serum (NRS) or 5% BlokHen II (Aves Labs, Inc., Tigard, OR), 0.05% Triton X-100 and PBS. Subsequently, the blocking solution was tipped off and the slides were rinsed in PBS for 2 minutes. […]

Active Caspase-3 = assay: Active caspase-3 labelling (apoptotic activity)
Protocol: as §1, §2

[2] = SG-fed vs control, time-point 2, 52 wk

CCC(C=CC(C)C1CCC2C3CC=C4CC(OC5OC(CO)C(O)C(O)C5O)CCC4(C)C3CCC12C)C(C)C (stereo not shown) [SG]
accumulation of lipid deposits over time, lumbar spinal cord (Lipid deposits; SG-fed animals, 35 to 52 weeks): did not experience an accumulation of deposits over time | lipid deposits, time-dependent effects in the dorsal or ventral roots (Lipid deposits; SG-fed animals, 35 to 52 weeks): did not show time-dependent effects | Lipid deposits, DR (Lipid deposits; SG-fed over time, 35 to 52 wk): SG-fed DR over time: ns, p=0.8062 | Lipid deposits, Lsc (Lipid deposits; SG-fed over time, 35 to 52 wk): SG-fed Lsc over time: ns, p=0.4864 | Lipid deposits, VR (Lipid deposits; SG-fed over time, 35 to 52 wk): SG-fed VR over time: ns, p=0.5478 | lipids in the dorsal roots (Lipid deposits; SG-fed vs control, 35 weeks): not significant | lipids in the ventral spinal roots (Lipid deposits; SG-fed vs control, 35 weeks): +10% | lipid deposits, inter-group differences in lumbar spinal cord, dorsal root, ventral root (Lipid deposits; SG-fed vs control, 52 weeks): statistically significant inter-group differences were not found | Lipids deposits Lsc VH (Lipid deposits; [2]): Lipids deposits Lsc VH: +10%* | Anti-IBA-1 immunoreactive cells [1]: Anti-IBA-1 immunoreactive cells (SG-fed group over time) (ns) | Apoptotic cells (Active Caspase-3; SG-fed group over time, 35 to 52 wk): Apoptotic cells (SG-fed group over time) (ns) | number of apoptotic cells (Active Caspase-3; SG-fed vs control, 52 weeks (figure legend)): did not reach significance | Anti-active caspase 3 (Active Caspase-3; [2]): (ns)
